Columns and labels:
[1] = target: T1, NAD-dependent protein deacetylase sirtuin-1 (Homo sapiens, UniProt Q96EB6); experiment: Fluorescence-Based Deacetylation Assay; conditions: pH 8; 37 °C
T1 sequence (Q96EB6 whole entry): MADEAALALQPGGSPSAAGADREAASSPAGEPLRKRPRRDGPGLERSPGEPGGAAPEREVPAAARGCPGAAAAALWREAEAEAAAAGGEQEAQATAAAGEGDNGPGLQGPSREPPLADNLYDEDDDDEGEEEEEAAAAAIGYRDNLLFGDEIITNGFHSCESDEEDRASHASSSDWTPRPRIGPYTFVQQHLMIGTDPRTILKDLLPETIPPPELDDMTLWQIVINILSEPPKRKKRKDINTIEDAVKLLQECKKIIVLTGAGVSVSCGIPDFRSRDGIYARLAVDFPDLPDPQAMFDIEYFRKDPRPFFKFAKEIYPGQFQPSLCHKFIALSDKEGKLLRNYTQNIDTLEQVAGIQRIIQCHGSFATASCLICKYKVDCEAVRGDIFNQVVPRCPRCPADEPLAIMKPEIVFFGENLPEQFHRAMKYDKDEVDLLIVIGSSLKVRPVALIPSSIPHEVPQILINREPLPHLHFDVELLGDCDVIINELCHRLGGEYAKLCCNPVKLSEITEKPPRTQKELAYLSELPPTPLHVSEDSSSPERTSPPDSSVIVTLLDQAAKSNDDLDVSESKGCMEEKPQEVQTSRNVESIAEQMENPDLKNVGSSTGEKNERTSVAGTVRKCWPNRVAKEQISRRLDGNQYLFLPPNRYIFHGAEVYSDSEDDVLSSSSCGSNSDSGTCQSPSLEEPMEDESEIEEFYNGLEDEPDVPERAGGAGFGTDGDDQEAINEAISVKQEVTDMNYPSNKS
Method: (§1) Deacetylation assays using Boc(Ac)Lys-7-amino-4-methyl-coumarin (MAL; Bachem, Bubendorf, Switzerland) as a substrate were performed in a volume of 20 μl in 384-well low volume plates (Eppendorf) in a reaction buffer containing 25 mM Tris-HCl (pH 8.0), 137 mM NaCl, 1 mM MgCl2, 2.7 mM KCl, 1 mg/ml BSA, and 1mM DTT. Enzymes were added at different concentrations to wells in a volume of 10 μl and were preincubated with inhibitors (volume 1 μl, diluted in dimethyl sulfoxide) or with dimethyl sulfoxide as a control for 10 min at room temperature. Subsequently, 10 μl 2× concentrated substrate solution containing 200 μM MAL and 2 mM NAD+ was added to initiate the reaction, which was incubated at 37 °C for 4 h. This allowed for ~50% deacetylation of MAL. After incubation, 20 μl of trypsin solution (0.5 mg/ml) was added, and the trypsin cleavage reaction was allowed to proceed at 37 °C for 1 h. Fluorescence readings were obtained using a fluorescence reader(GENiosPro TECAN), with the excitation wavelength set to 360 nm and the emission set to 465 nm.

[2] = target: T2, NAD-dependent protein deacetylase sirtuin-2 (Homo sapiens, UniProt Q8IXJ6); experiment: Fluorescence-Based Deacetylation Assay; conditions: pH 8; 37 °C
T2 sequence (Q8IXJ6 whole entry): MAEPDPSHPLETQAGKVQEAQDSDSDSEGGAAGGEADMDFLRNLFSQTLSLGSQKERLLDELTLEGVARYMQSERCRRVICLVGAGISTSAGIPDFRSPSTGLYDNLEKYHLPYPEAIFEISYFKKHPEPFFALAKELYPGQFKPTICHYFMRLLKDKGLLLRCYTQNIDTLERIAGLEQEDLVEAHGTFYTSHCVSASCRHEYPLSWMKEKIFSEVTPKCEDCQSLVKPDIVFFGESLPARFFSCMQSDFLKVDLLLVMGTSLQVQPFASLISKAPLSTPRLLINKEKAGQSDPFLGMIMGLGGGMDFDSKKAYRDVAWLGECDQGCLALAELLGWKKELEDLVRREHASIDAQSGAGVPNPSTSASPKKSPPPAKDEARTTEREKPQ
Method: as §1

IC50 [1]	IC50 [2]	SMILES
118 µM	18.5 µM	NC(=O)c1ccc2c(c1)C1C3CCC(C3)C1C(c1ccccc1)N2 (stereo not given) [AEM1]
> 100 µM	3.8 µM	O=C(NCc1cccnc1)c1ccc2c(c1)C1C3CCC(C3)C1C(c1ccccc1)N2 (stereo not given) [AEM2]
	18.7 µM	COCCCNC(=O)c1ccc2c(c1)C1C3CCC(C3)C1C(c1ccccc1)N2 (stereo not given) [AEM1 derivative, 1]

— BindingDB's records for doi:10.1074/jbc.M113.487736 (Universität Duisburg-Essen, 2014)
